Reference: patent US6699849B1, “Cyclodextrin complexes of benzodiazepines” (Cyclops, ehf., priority 1998, dated 2004)

How the values were obtained:
Format in all cases: physicochemical
[1] = Effect of pH and cyclodextrins on the fraction of the open form (diazepine ring-opening) of benzodiazepines
Method: The cyclodextrin concentration was 10% (w/v) and the benzodiazepine concentration was 1×10^−4 M. The concentration of the closed form was determined immediately after dissolving the benzodiazepine in the aqueous cyclodextrin solution and again 24 hours later (i.e. after equilibration at 23° C.). Preliminary experiments had shown that equilibrium between the closed and the open form was attained within 3 hours at 23° C.

[2] = Solubility of midazolam versus pH in buffer, 10% HPβCD and 10% HPβCD + 0.10% HPMC; settings: 10% (w/v) HPβCD + 0.10% (w/v) HPMC, FIG. 3
Method: Midazolam is a water-insoluble weak base (pKa 6.2) which forms a somewhat water-soluble cation in acidic solution. Solubility (S) of midazolam at several different pH levels was determined in: a) pure aqueous buffer solutions (i.e. without HPβCD and HPMC); b) aqueous buffer solutions containing 10% (w/v) 2-hydroxypropyl-β-cyclodextrin (HPβCD) of molar substitution (MS)=0.3; and c) aqueous solutions containing 10% (w/v) 2-hydroxypropyl-β-cyclodextrin (HPβCD) of molar substitution (MS)=0.3 and 0.10% (w/v) hydroxypropyl methylcellulose (HPMC) 4000. Excess amount of the drug was added to the aqueous solution and the suspension formed was heated in a sealed container in an autoclave (120-140° C. for 20-40 minutes). After equilibration at room temperature (22-23° C.) for seven days, the suspension was filtered through a 0.45 μm membrane filter, diluted with aqueous methanolic solution and the amount of dissolved midazolam determined by a high pressure liquid chromatographic method (HPLC). FIG. 3 illustrates the effect of pH (i.e. the ring-opening) on the solubility of midazolam (pKa 6.2) in pure aqueous buffer solutions (●), aqueous buffer solutions containing 10% (w/v) HPβCD (▪), and aqueous buffer solutions containing both 10% (w/v) HPβCD and 0.10% (w/v) HPMC (♦) at room temperature.

[3] = Solubility of midazolam versus pH with cyclodextrins and 10% (v/v) acetic acid
Method: Excess amount of the drug was added to the aqueous HPβCD solution and the suspension formed was heated in a sealed container in an autoclave (120-140° C. for 20-40 minutes). After equilibration at room temperature (22-23° C.) for seven days, the suspension was filtered through a 0.45 μm membrane filter, diluted with aqueous methanolic solution and the amount of dissolved midazolam determined by a high pressure liquid chromatographic method (HPLC). FIG. 4 illustrates the effects of cyclodextrins, pH and 10% (v/v) acetic acid on the solubility of midazolam in aqueous solutions: pure aqueous buffer solution (▴); aqueous 10% (v/v) acetate solution (●); 10% (w/v) HPβCD solution containing 0.10% (w/v) HPMC in aqueous 10% (v/v) acetic acid solution (▪); 10% (w/v) aqueous SBEβCD solution in aqueous 10% (v/v) acetate (♦).

[4] = First-order rate constant of diazepine ring-closure (regeneration of the benzodiazepine); settings: pH 7.5, 37° C.
Method: The effect of cyclodextrins and organic solvents on the rate of diazepine ring-closure of several selected benzodiazepines was investigated. Stock solutions containing 1.0×10^−3 M of the benzodiazepine in 0.10 M aqueous hydrochloric acid solution (pH approx. 1.1) were prepared and stored at 37.0° C. The benzodiazepines were in the ring-open form in these stock solutions. Aqueous 0.50 M tris buffer (pH 7.50) solution was prepared. The observed first-order rate constant for the closing (i.e. formation) of the benzodiazepine ring was determined in the following reaction media: a) pure aqueous tris buffer solution; b) aqueous tris buffer solution containing 10% (w/v) cyclodextrin; c) tris buffer solution containing 10% (w/v) cyclodextrin and 10% (v/v) ethanol (EtOH); d) tris buffer solution containing 10% (w/v) cyclodextrin and 50% (v/v) EtOH; e) tris buffer solution containing 10% (w/v) cyclodextrin and 10% (v/v) dimethylsulfoxide (DMSO); and f) tris buffer solution containing 10% (w/v) cyclodextrin and 50% (w/v) DMSO. The stock solution (30 μl) was added to 1.50 ml of the reaction media which had previously been equilibrated to 37.0° C. and the first-order rate constant for the appearance of the closed form determined from the appearance of the closed form as observed on HPLC. Tables 5, 6 and 7 show the effects of cyclodextrins, EtOH and DMSO on the observed first-order rate constant for the regeneration of alprazolam, triazolam and midazolam, respectively. In pure aqueous buffer solutions, addition of EtOH and DMSO decreases somewhat the rate of ring closure, at least in the case of alprazolam and midazolam. Addition of cyclodextrin or the organic solvents have insignificant effect on the pH under these conditions. The dielectric constant of the reaction medium will, however, decrease upon addition of the organic solvents. It is possible that this decrease in the dielectric constant will reduce the ability of the reaction media to stabilize the transition state which could explain the decrease in the observed rate constant. […] The cyclodextrins formed stable complexes with the ring-open form of the drug and, thus, the rate decreased upon addition of cyclodextrin. […] EtOH and DMSO will compete with the diazepine ring-open form for a space in the cyclodextrin cavity resulting in decreased complexation.

SMILES: Cc1ncc2n1-c1ccc(Cl)cc1C(c1ccccc1F)=NC2 [midazolam, 8-chloro-6-(2-fluorophenyl)-1-methyl-4H-imidazo[1,5-a][1,4]benzodiazepine]
- Fraction open ([1]; 10% (w/v) HPβCD, pH 2, approx. 23° C.): 0.56
- Fraction open ([1]; 10% (w/v) HPβCD, pH 3, approx. 23° C.): 0.18
- Fraction open ([1]; 10% (w/v) HPβCD, pH 4, approx. 23° C.): 0.23
- Fraction open ([1]; 10% (w/v) SBEβCD, pH 2, approx. 23° C.): 0.81
- Fraction open ([1]; 10% (w/v) SBEβCD, pH 3, approx. 23° C.): 0.39
- Fraction open ([1]; 10% (w/v) SBEβCD, pH 4, approx. 23° C.): 0.11
- Fraction open ([1]; 10% (w/v) αCD, pH 2, approx. 23° C.): 0.79
- Fraction open ([1]; 10% (w/v) αCD, pH 3, approx. 23° C.): 0.32
- Fraction open ([1]; 10% (w/v) αCD, pH 4, approx. 23° C.): 0.10
- Fraction open ([1]; 10% (w/v) γCD, pH 2, approx. 23° C.): 0.61
- Fraction open ([1]; 10% (w/v) γCD, pH 3, approx. 23° C.): 0.21
- Fraction open ([1]; 10% (w/v) γCD, pH 4, approx. 23° C.): 0.17
- Fraction open ([1]; no cyclodextrin, pH 2, approx. 23° C.): 0.74
- Fraction open ([1]; no cyclodextrin, pH 3, approx. 23° C.): 0.28
- Fraction open ([1]; no cyclodextrin, pH 4, approx. 23° C.): 0.18
- effect of addition of HPMC on complexation efficiency [2]: significantly improves
- effect of 10% (v/v) acetic acid co-solvent on fraction of the open ring form [3]: small decrease
- effect of addition of 10% (v/v) acetic acid on complexation ([3]; cyclodextrin solutions, FIG. 4): significantly improves
- observed first-order rate constant, ring formation ([4]; 10% HPβCD, 10% DMSO): 0.0336 min⁻¹
- observed first-order rate constant, ring formation ([4]; 10% HPβCD, 10% EtOH): 0.0386 min⁻¹
- observed first-order rate constant, ring formation ([4]; 10% HPβCD, 50% DMSO): 0.084 min⁻¹
- observed first-order rate constant, ring formation ([4]; 10% HPβCD, 50% EtOH): 0.0653 min⁻¹
- observed first-order rate constant, ring formation ([4]; 10% HPβCD, pure water): 0.0277 min⁻¹
- observed first-order rate constant, ring formation ([4]; 10% RMβCD, 10% DMSO): 0.0494 min⁻¹
- observed first-order rate constant, ring formation ([4]; 10% RMβCD, 10% EtOH): 0.0424 min⁻¹
- observed first-order rate constant, ring formation ([4]; 10% RMβCD, 50% DMSO): 0.0848 min⁻¹
- observed first-order rate constant, ring formation ([4]; 10% RMβCD, 50% EtOH): 0.0699 min⁻¹
- observed first-order rate constant, ring formation ([4]; 10% RMβCD, pure water): 0.0305 min⁻¹
- observed first-order rate constant, ring formation ([4]; 10% SBEβCD, 10% DMSO): 0.0224 min⁻¹
- observed first-order rate constant, ring formation ([4]; 10% SBEβCD, 10% EtOH): 0.033 min⁻¹
- observed first-order rate constant, ring formation ([4]; 10% SBEβCD, 50% DMSO): 0.0855 min⁻¹
- observed first-order rate constant, ring formation ([4]; 10% SBEβCD, 50% EtOH): 0.065 min⁻¹
- observed first-order rate constant, ring formation ([4]; 10% SBEβCD, pure water): 0.013 min⁻¹
- observed first-order rate constant, ring formation ([4]; No CD, 10% DMSO): 0.138 min⁻¹
- observed first-order rate constant, ring formation ([4]; No CD, 10% EtOH): 0.126 min⁻¹
- observed first-order rate constant, ring formation ([4]; No CD, 50% DMSO): 0.109 min⁻¹
- observed first-order rate constant, ring formation ([4]; No CD, 50% EtOH): 0.0841 min⁻¹
- observed first-order rate constant, ring formation ([4]; No CD, pure water): 0.179 min⁻¹
